Structures can show the parent of a compound that is named as a salt. Where two headings read alike, the source gives them in different places.
What was measured:
[1] = Tolerance after intravenous administration; format: in vivo; details: intravenous administration of 30 mg/kg to three mice
[2] = tested on: collagen-induced thrombocyte aggregation in platelet-rich plasma; assay: Collagen-induced platelet aggregation in platelet-rich plasma (Born and Cross method); format: cell-based, healthy volunteers (human); details: read-out: Inhibition of platelet aggregation EC50
Procedure: The thrombocyte aggregation is measured using the Born and Cross method (J. Physiol. 170: 397 (1964)) in platelet-rich plasma taken from healthy volunteers. To inhibit coagulation the blood is mixed with 3.14% sodium citrate in a ratio by volume of 1:10.
Collagen-induced aggregation
The pattern of the decrease in optical density of the platelet suspension is photometrically measured and recorded after the addition of aggregation-triggering substance. The rate of aggregation is concluded from the angle of inclination of the density curve. The point on the curve where there is maximum light transmittance is used to calculate the optical density.
The amount of collagen used is as small as possible but sufficient to produce an irreversible reaction curve. Standard commercial collagen produced by Hormonchemie of Munich is used. Before the addition of the collagen the plasma is incubated for 10 minutes with the substance at 37° C.
From the measurements obtained an EC50 is determined graphically, indicating a 50% change in the optical density in terms of the inhibition of aggregation.

[3] = target: fibrinogen binding to human thrombocytes; assay: Fibrinogen binding to human thrombocytes; details: gel-filtered human platelets, 125I fibrinogen, ADP, 20 minutes, ambient temperature; read-out: Fibrinogen-binding test IC50
Procedure: The blood obtained by puncturing an antecubital vein is anticoagulated with trisodium citrate (final concentration: 13 mM) and centrifuged for 10 minutes at 170×g. The supernatant platelet-rich plasma is poured onto a Sepharose 2B column (Pharmacia) and eluted with a solution of 90 mM common salt, 14 mM trisodium citrate, 5 mM glucose and 50 mM Tris(hydroxymethyl)aminomethane, adjusted to pH 7.4. The gel-filtered platelets (GFP) appearing before the plasma proteins are used for the binding experiments.
50 μl of a 60 mM calcium chloride solution, 50 μl of a 0.6 mM adenosine diphosphate solution, 100 μl of substance solution or solvent and 50 μl of fibrinogen solution (containing 3 μg of ^125 I fibrinogen) are added to 750 μl of GFP and incubated for 20 minutes at ambient temperature. The non-specific binding is determined in the presence of 3 mg/ml of cold fibrinogen.
900 μl of the incubated material are carefully pipetted onto 250 μl of silicon oil (AP 38: AR 20, 1:2 v/v, Wacker Chemie) in Eppendorf tubes and centrifuged for 2 minutes at 10,000×g. The aqueous supernatant and some of the oil are drawn off, the tips of the tubes are cut off together with the platelet pellet and the quantity of bound fibrinogen is determined in a gamma counter. The concentration of substance which brings about a 50% inhibition in fibrinogen binding is determined from a series of concentrations and is given as the IC50 value.

[4] = tested on: collagen-induced thrombocyte aggregation; assay: Inhibition of collagen-induced thrombocyte aggregation ex vivo after oral administration; format: in vivo; details: Rhesus monkeys, oral administration of 1 mg/kg
Procedure: Moreover, the compound of Example 5, for example, inhibits the collagen-induced thrombocyte aggregation ex vivo in Rhesus monkeys for more than 8 hours after oral administration of 1 mg/kg.

[5] = collagen-induced, human platelet-rich plasma, 10 minutes preincubation at 37° C.

Row | SMILES | IC50 [3] [nM] | EC50 [2, 5] [nM] | animals died [1] | EC50 ([2]; Homo sapiens, Platelet) [nM] | inhibits the collagen-induced thrombocyte aggregation ex vivo for (duration) [4]
1 | N=C(N)c1ccc(NC(=O)c2cccn(C[C@@H]3C[C@@H](CC(=O)O)C(=O)N3CCCc3ccccc3)c2=O)cc1 [4(18)] | 55 | – | no animals died | 430 | –
2 | N=C(N)c1cnc(-c2ccc(OC[C@@H]3C[C@@H](CC(=O)O)C(=O)N3)cc2)s1 [Example 1(3), (3S,5S)-5-[[4-(5-amidino-2-thiazolyl)phenyl]oxymethyl]-3-carboxymethyl-2-pyrrolidinone×0.6 H2 O] | 42 | 100 | – | – | –
3 | N=C(N)c1ccc(-c2ccc(OC[C@@H]3C[C@@H](CC(=O)O)C(=O)N3)cc2)nc1 [Example 1, (3S,5S)-5-[[4-(5-amidino-2-pyridyl)phenyl]oxymethyl]-3-carboxymethyl-2-pyrrolidinone] | – | 60 | no animals died | – | –
4 | Nc1nccc2cc(-c3ccc(OC[C@@H]4C[C@@H](CC(=O)O)C(=O)N4)cc3)ccc12 [Example 4(3), (3S,5S)-5-[[4-(1-amino-6-isoquinolinyl)phenyl]oxymethyl]-3-carboxymethyl-2-pyrrolidinone-hydrochloride] | 160 | 38000 | – | – | –
5 | N=C(N)c1ccc2c(c1)CCN(C(=O)NCC[C@@H]1C[C@@H](CC(=O)O)C(=O)N1CCCc1ccccc1)CC2 [Example 4(8), (3S,5S)-5-[2-[(7-amidino-1H-2,3,4,5-tetrahydro-3-benzazepin-3-yl)carbonylamino]ethyl]-3-carboxymethyl-1-(3-phenylpropyl)-2-pyrrolidinone×2 H2 O] | 770 | 5500 | – | – | –
6 | N=C(N)c1ccc(-c2ccc(NC[C@@H]3C[C@@H](CC(=O)O)C(=O)N3)nn2)cc1 [Example 4(13), (3S,5S)-5-[[6-(4-amidinophenyl)-3-pyridazinyl]aminomethyl]-3-carboxymethyl-2-pyrrolidinone] | 59 | 590 | – | – | –
7 | Cn1nc(-c2ccc(C(=N)N)cc2)cc(C(=O)NC[C@@H]2C[C@@H](CC(=O)O)C(=O)N2)c1=O [Example 4(15), (3S,5S)-5-[[[6-(4-amidinophenyl)-2-methyl-3(2H)-pyridazinon-4-yl]carbonyl]aminomethyl]-3-carboxymethyl-2-pyrrolidinone] | 590 | 3000 | – | – | –
8 | COC(=O)C[C@@H]1C[C@@H](COc2ccc(-c3ccc(C(=N)NC(=O)OC)cn3)cc2)NC1=O [Example 5, (3S,5S)-5-[[4-[5-(N-Methoxycarbonylamidino)-2-pyridyl]phenyl]oxymethyl]-3-[(methoxycarbonyl)methyl]-2-pyrrolidinone] | – | – | – | – | more than 8 hours
9 | N=C(N)N1Cc2ccc(C(=O)NCC[C@@H]3C[C@@H](CC(=O)O)C(=O)N3CCCc3ccccc3)cc2C1 [Example 11, (3S,5S)-5-[2-[(2-amidino-5-isoindolinyl)carbonylamino]ethyl]-3-carboxymethyl-1-(3-phenylpropyl)-2-pyrrolidinone] | 270 | 890 | – | – | –
10 | O=C(O)C[C@@H]1C[C@@H](CCNC(=O)c2ccc(C3CCNCC3)cc2)N(CCCc2ccccc2)C1=O [Example 12(6), (3S,5S)-3-carboxymethyl-1-(3-phenylpropyl)-5-[2-[[4-(4-piperidinyl)phenyl]carbonylamino]ethyl]-2-pyrrolidinone×0.75 H2 O] | 570 | 3800 | – | – | –

Now from value to compound, other results behind:

Row | IC50 [3] [nM] | EC50 [2, 5] [nM] | SMILES | animals died [1] | EC50 ([2]; Homo sapiens, Platelet) [nM] | inhibits the collagen-induced thrombocyte aggregation ex vivo for (duration) [4]
11 | 200 | 540 | N=C(N)c1ccc(-c2ccc(OC[C@@H]3C[C@@H](CC(=O)O)CN3c3ncccn3)cc2)cc1 [Example 4(2), (3S,5S)-5-[(4'-amidino-4-biphenylyl)oxymethyl]-3-carboxymethyl-1-(2-pyrimidyl)-pyrrolidine×0.25 HCl×0.4 H2 O] | – | – | –
12 | 140 | 210 | N=C(N)c1ccc(-c2ccc(OC[C@@H]3C[C@@H](CC(=O)O)CN3C(=O)c3cccnc3)cc2)cc1 [Example 4(4), (3S,5S)-5-[(4'-amidino-4-biphenylyl)oxymethyl]-3-carboxymethyl-1-nicotinoyl-pyrrolidine] | – | – | –
13 | 31 | 160 | N=C(N)c1ccc(-c2ccc(OC[C@@H]3C[C@@H](CC(=O)O)C(=O)N3c3cccnc3)cc2)cc1 [Example 4(6), (3S,5S)-5-[(4'-amidino-4-biphenylyl)oxymethyl]-3-carboxymethyl-1-(3-pyridyl)-2-pyrrolidinone×1.2 H2 O] | – | – | –
14 | 32 | 100 | N=C(N)c1ccc(-c2ccc(OC[C@@H]3C[C@@H](CC(=O)O)C(=O)N3CCCc3ccccc3)nn2)cc1 [Example 4(11)] | – | – | –
15 | 13000 | 2500 | COC(=O)C[C@@H]1C[C@@H](COc2ccc(-c3ccc(C(=N)N)cc3)cc2)N(c2cccnc2)C1=O [Example 6(3), (3S,5S)-5-[(4'-amidino-4-biphenylyl)oxymethyl]-3-[(methoxycarbonyl)methyl]-1-(3-pyridyl)-2-pyrrolidinone×1.2 HCl×1 H2 O] | – | – | –

Reference: patent US5455348A, “2-pyrrolidinones, pharmaceutical compositions containing these compounds and processes for preparing them” (Thomae; Karl, priority 1991, dated 1995)
